Laboratory results as given in US4404211A, “Analgesic mixture of nalbuphine and flurbiprofen” (E. I. Du Pont de Nemours and Company, priority 1982, dated 1983).

Tested on: phenyl-p-benzoquinone induced writhing in mice
Experiment: mouse antiphenylquinone (phenyl-p-benzoquinone induced) writhing test, oral, 20 min
Method: Male CF1 mice obtained from Charles River Breeding Laboratories, fasted for 16-22 hours and weighing 18-22 g at the time of testing are used throughout. All mice are dosed sequentially by the oral route with solutions of flurbiprofen and/or of nalbuphine hydrochloride. A dosing volume of 10 ml/kg is used for each sequential solution or suspension. […] All doses are coded and the test is performed under a code not known to the observer.
A stock solution of flurbiprofen is prepared by dissolving dry flurbiprofen powder with an equimolar amount of one molar sodium hydroxide and sufficient water to produce the required solution concentration. The acidity is adjusted with dilute hydrochloric acid to pH 9.0. All dosing solutions are prepared by dilution of the stock solution with distilled water; the vehicle control is distilled water.
Stock solutions of nalbuphine HCl are prepared by dissolving dry nalbuphine hydrochloride powder with distilled water. All dosing solutions are prepared by dilution of the stock solution with distilled water; the vehicle control is distilled water.
As indicated above, the standard procedure based upon the prevention of phenyl-p-benzoquinone induced writhing in mice is utilized to detect and quantify the analgetic activity of compositions containing nalbuphine and flurbiprofen.
Mice, intubated with various doses of nalbuphine hydrochloride, flurbiprofen, combined doses of nalbuphine hydrochloride and flurbiprofen,or vehicle, are injected intraperitoneally with a challenge dose of phenyl-p-benzoquinone 5 minutes prior to the designated observation period. […] For scoring purposes a "writhe" is indicated by whole body stretching or contraction of the abdomen; mice are observed 10 minutes for the presence or absence of writhing beginning 5 minutes after receiving the phenyl-p-benzoquinone dose. Each mouse is used only once, then discarded. […] This dosage as described herein is referred to as the ED50.
In order to study the interaction between nalbuphine and flurbiprofen, 5 precise dosage ratios of nalbuphine hydrochloride and flurbiprofen are selected. Four or five coded doses of each selected combination are studied for analgesic effectivenss at 20 minutes using an experimental design which permits coding and complete randomization of the separate dosage forms tested. Althogether 35 separate dosage forms are used and each form is represented in each experimental session. The experiments are continued by running experimental sessions with an equal number of mice per group being tested until the total number, N, of mice tested per group is 20. Later, an additional 20 mice/dose are tested and the results are pooled with the original data to yield N=20-40 mice/dose.

## Oc1ccc2c3c1O[C@H]1[C@@H](O)CC[C@@]4(O)[C@@H](C2)N(CC2CCC2)CC[C@]314 [Nalbuphine Only (1:0), (-)-17-(cyclobutylmethyl)-4,5α-epoxymorphinan-3,6α,14-triol]
Nalbuphine HCl 2.93 + flurbiprofen 0 mg/kg
  % MICE BLOCKED: 12.5%
Nalbuphine HCl 5.85 + flurbiprofen 0 mg/kg
  % MICE BLOCKED: 22.5%
Nalbuphine HCl 11.7 + flurbiprofen 0 mg/kg
  % MICE BLOCKED: 45.0%
Nalbuphine HCl 23.4 + flurbiprofen 0 mg/kg
  % MICE BLOCKED: 67.5%
Nalbuphine HCl 46.8 + flurbiprofen 0 mg/kg
  % MICE BLOCKED: 80.0%
Nalbuphine HCl dose (alone or as component of the combination), N = 20-40 mice/dose
  ED50 at 20 Min. (95% Confidence Limits), Nalbuphine HCl: 16.5 mg/kg

## CC(C(=O)O)c1ccc(-c2ccccc2)c(F)c1 (stereo not drawn) [Flurbiprofen Only (0:1), 2-fluoro-α-methyl[1,1'-biphenyl]-4-acetic acid]
Flurbiprofen dose (alone or as component of the combination), N = 20-40 mice/dose
  ED50 at 20 Min. (95% Confidence Limits), Flurbiprofen: 1.56 mg/kg
Nalbuphine HCl 0 + flurbiprofen 0.4 mg/kg
  % MICE BLOCKED: 5.0%
Nalbuphine HCl 0 + flurbiprofen 0.8 mg/kg
  % MICE BLOCKED: 32.5%
Nalbuphine HCl 0 + flurbiprofen 1.6 mg/kg
  % MICE BLOCKED: 45.0%
Nalbuphine HCl 0 + flurbiprofen 3.2 mg/kg
  % MICE BLOCKED: 87.5%
